Data taken from ChEMBL document CHEMBL3885861, “Open TG-GATES”.

Organism: Rattus norvegicus
Experiment: Open TG-GATES - Regimen: Single
Format: toxicity, organism-based, Sprague-Dawley
Set-up: regimen Single, gender Male, age 6 weeks
Settings: in vivo, po, 0 mg/kg, route gavage, dose level Control; for APTT / Bas / Eos / Fbg / Hb / Ht / Lym / MCH / MCHC / MCV / Mono / Neu / PT / Plat / RBC / Ret / WBC: tissue Blood; for KIDNEY_L / KIDNEY_R / KIDNEY_TOTAL: tissue Kidney; for LIVER: tissue Liver; for A/G / ALP / ALT / AST / BUN / CRE / Ca / Cl / DBIL / GLC / IP / K / LDH / Na / PL / RALB / TBIL / TC / TG / TP / gamma-GTP: tissue Plasma

CCc1cc(C(N)=S)ccn1 [ETHIONAMIDE]
TERMINAL_BW (3 h): 229.3 g | APTT (3 h): 16.6 s | Bas (3 h): 0% | Eos (3 h): 1% | Fbg (3 h): 213.4 mg/dL | Hb (3 h): 14 g/dL | Ht (3 h): 41.5% | Lym (3 h): 80.2% | MCH (3 h): 22.1 pg | MCHC (3 h): 33.8% | MCV (3 h): 65.5 fL | Mono (3 h): 7.2% | Neu (3 h): 11.6% | PT (3 h): 11.7 s | Plat (3 h): 118.5 x10_4/uL | RBC (3 h): 635.2 x10_4/ul | Ret (3 h): 7.7% | WBC (3 h): 98.2 x10_2/uL | KIDNEY_L (3 h): 1 g | KIDNEY_R (3 h): 1.1 g | KIDNEY_TOTAL (3 h): 2.1 g | LIVER (3 h): 11.4 g | A/G (3 h): 1.8 | ALP (3 h): 831 IU/L | ALT (3 h): 31.8 IU/L | AST (3 h): 64.6 IU/L | BUN (3 h): 13.6 mg/dL | CRE (3 h): 0.6 mg/dL | Ca (3 h): 10.9 mg/dL | Cl (3 h): 104.8 meq/L | DBIL (3 h): 0.006 mg/dL | GLC (3 h): 192.4 mg/dL | IP (3 h): 8.2 mg/dL | K (3 h): 4.6 meq/L | LDH (3 h): 72.6 IU/L | Na (3 h): 141 meq/L | PL (3 h): 152.2 mg/dL | RALB (3 h): 3.5 g/dL | TBIL (3 h): 0.3 mg/dL | TC (3 h): 82 mg/dL | TG (3 h): 86.2 mg/dL | TP (3 h): 5.4 g/dL | gamma-GTP (3 h): 1 IU/L | TERMINAL_BW (6 h): 223.7 g | APTT (6 h): 18.2 s | Bas (6 h): 0% | Eos (6 h): 1% | Fbg (6 h): 221.6 mg/dL | Hb (6 h): 14.1 g/dL | Ht (6 h): 41.9% | Lym (6 h): 80.6% | MCH (6 h): 21.8 pg | MCHC (6 h): 33.5% | MCV (6 h): 65.2 fL | Mono (6 h): 7.6% | Neu (6 h): 11.2% | PT (6 h): 12.1 s | Plat (6 h): 124.1 x10_4/uL | RBC (6 h): 644 x10_4/ul | Ret (6 h): 7.8% | WBC (6 h): 114.3 x10_2/uL | KIDNEY_L (6 h): 1 g | KIDNEY_R (6 h): 1 g | KIDNEY_TOTAL (6 h): 2 g | LIVER (6 h): 10.5 g | A/G (6 h): 1.6 | ALP (6 h): 729.4 IU/L | ALT (6 h): 29.6 IU/L | AST (6 h): 63.6 IU/L | BUN (6 h): 12 mg/dL | CRE (6 h): 0.5 mg/dL | Ca (6 h): 11 mg/dL | Cl (6 h): 104 meq/L | DBIL (6 h): 0 mg/dL | GLC (6 h): 187.6 mg/dL | IP (6 h): 9.4 mg/dL | K (6 h): 5 meq/L | LDH (6 h): 87.8 IU/L | Na (6 h): 139 meq/L | PL (6 h): 150 mg/dL | RALB (6 h): 3.3 g/dL | TBIL (6 h): 0.4 mg/dL | TC (6 h): 82.4 mg/dL | TG (6 h): 86.6 mg/dL | TP (6 h): 5.4 g/dL | gamma-GTP (6 h): 1.2 IU/L | TERMINAL_BW (9 h): 223.4 g | APTT (9 h): 17.3 s | Bas (9 h): 0% | Eos (9 h): 1% | Fbg (9 h): 213.8 mg/dL | Hb (9 h): 13.9 g/dL | Ht (9 h): 41% | Lym (9 h): 71% | MCH (9 h): 21.8 pg | MCHC (9 h): 33.9% | MCV (9 h): 64.3 fL | Mono (9 h): 7% | Neu (9 h): 21.4% | PT (9 h): 12.1 s | Plat (9 h): 115.1 x10_4/uL | RBC (9 h): 639.6 x10_4/ul | Ret (9 h): 7.9% | WBC (9 h): 97.9 x10_2/uL | KIDNEY_L (9 h): 1.1 g | KIDNEY_R (9 h): 1 g | KIDNEY_TOTAL (9 h): 2.1 g | LIVER (9 h): 9.8 g | A/G (9 h): 1.9 | ALP (9 h): 759.2 IU/L | ALT (9 h): 31.2 IU/L | AST (9 h): 59.2 IU/L | BUN (9 h): 13.2 mg/dL | CRE (9 h): 0.5 mg/dL | Ca (9 h): 10.4 mg/dL | Cl (9 h): 107 meq/L | DBIL (9 h): 0.024 mg/dL | GLC (9 h): 194.8 mg/dL | IP (9 h): 10.2 mg/dL | K (9 h): 4.7 meq/L | LDH (9 h): 66.6 IU/L | Na (9 h): 143.4 meq/L | PL (9 h): 126.8 mg/dL | RALB (9 h): 3.6 g/dL | TBIL (9 h): 0.4 mg/dL | TC (9 h): 65.8 mg/dL | TG (9 h): 47.8 mg/dL | TP (9 h): 5.4 g/dL | gamma-GTP (9 h): 1.2 IU/L | TERMINAL_BW (24 h): 237.2 g | APTT (24 h): 16.3 s | Bas (24 h): 0% | Eos (24 h): 1.2% | Fbg (24 h): 214.4 mg/dL | Hb (24 h): 13.9 g/dL | Ht (24 h): 41.1% | Lym (24 h): 75.6% | MCH (24 h): 21.8 pg | MCHC (24 h): 33.7% | MCV (24 h): 64.7 fL | Mono (24 h): 7.6% | Neu (24 h): 15.6% | PT (24 h): 11.7 s | Plat (24 h): 117.8 x10_4/uL | RBC (24 h): 635.6 x10_4/ul | Ret (24 h): 7.8% | WBC (24 h): 117.6 x10_2/uL | KIDNEY_L (24 h): 1 g | KIDNEY_R (24 h): 1 g | KIDNEY_TOTAL (24 h): 2.1 g | LIVER (24 h): 11.8 g | A/G (24 h): 1.9 | ALP (24 h): 856.4 IU/L | ALT (24 h): 40.8 IU/L | AST (24 h): 70.6 IU/L | BUN (24 h): 20 mg/dL | CRE (24 h): 0.6 mg/dL | Ca (24 h): 11 mg/dL | Cl (24 h): 104.4 meq/L | DBIL (24 h): 0.016 mg/dL | GLC (24 h): 200.2 mg/dL | IP (24 h): 8.1 mg/dL | K (24 h): 4.7 meq/L | LDH (24 h): 77.8 IU/L | Na (24 h): 141.2 meq/L | PL (24 h): 151.8 mg/dL | RALB (24 h): 3.6 g/dL | TBIL (24 h): 0.3 mg/dL | TC (24 h): 79.8 mg/dL | TG (24 h): 90.6 mg/dL | TP (24 h): 5.5 g/dL | gamma-GTP (24 h): 1.6 IU/L
